Source: patent US8735609B2, “Bryostatin analogues, synthetic methods and uses” (The Board of Trustees of the Leland Stanford Junior …, priority 2007, dated 2014)
Where two headings read alike, the source gives them in different places.

Legend:
[1] = target: PKC purified from the rat brain; test: PKC binding assay; details: for Ki: competitive inhibition of [3H]-PDBu binding, read-out: PKC Binding constant
Procedure: Filters (Whatman GF-B, 21 mm dia.) are soaked for 1 hour in a solution containing deionized water (97 mL), and 10% polyethyleneamine (3 mL). An assay buffer solution is prepared by the combining of TRIS (1M, pH 7.4, 1 mL), KCl (1M, 2 μL), CaCl2 (0.1M, 30 μL), bovine serum albumin (40 mg), and diluting to 20 mL with deionized water and stored on ice. Phosphatidyl serine vesicles are prepared by the addition of phosphatidyl serine (10 mg/mL in chloroform, 0.4 mL) to a glass test tube followed by removal of the chloroform under a stream of nitrogen (5 min). To this viscous liquid is added a portion of the prepared assay buffer (4 mL) and the resulting mixture is then transferred to a plastic tube. This tube is then sonicated (Branson Sonifier 250, power=6, 40% duty cycle) four times for 30 sec. with a 30 sec. rest in-between sonications. The resulting solution is stored over ice. PKC is prepared by the addition of cooled assay buffer (10 mL) to PKC (25 mL) purified from the rat brain by the method of Mochly-Rosen et al. (J. Biol. Chem. 1987, 262, 2291) and then stored on ice. Stock solutions of compounds are diluted with absolute ethanol in glass in serial fashion.
Each plastic assay incubation tube is made to contain prepared phosphatidyl serine vesicles (60 μL), prepared PKC solution (200 μL) and analog ([…] plus EtOH (20-0 μL) for a total volume of 20 μL). Lastly, tritiated phorbol dibutryate ([3H]-PDBu) (30 nM, 20 μL) is added to each tube. The assay is carried out using 7-10 analog concentrations, each in triplicate. Non-specific binding is measured in 1-3 tubes by the substitution of phorbol myristate acetate (PMA) (1 mM, 5 μL) and EtOH (15 μL) for the analog/EtOH combination. The tubes are incubated at 37° C. for 90 min. and then put on ice for 5 min. Each tube is then filtered separately through a pre-soaked filter disc. The filter is subsequently rinsed with cold 20 mM TRIS buffer (5 mL) dropwise. The filters are then put in separate scintillation vials and Universol® scintillation fluid is added (3 mL). The filters are immediately counted in a scintillation counter (Beckman LS 6000SC). Counts per minute are averaged among three trials at each concentration. The data is then plotted using a least square fit algorithm with the Macintosh version of Kaleidagraph® (Abelbeck Software) and an IC50 (defined as the concentration of analog required to displace half of the specific PDBu binding to PKC) is calculated. The IC50 then allows determination of the Ki for the analog from the equation: Ki=IC50/(1+[PDBu])/Kd of PDBu).

[2] = target: T1, PKCβI (PKC-GFP fusion protein) (Homo sapiens, UniProt P05771); test: PKC translocation assay, PKCβI; format: cell-based, Rat
T1 construct: expressed in transfected cells; host or cells: Rat basophilic leukemia 2H3 (RBL) cells
Procedure: (§1) Functional activity of analogs were addressed in a PKC translocation assay. […] This translocation can be observed and measured in real time with confocal microscopy using the fusion protein PKC-GFP (green fluorescent protein) as a reporter. Translocation assays were performed on the novel PKC isozymes δ and ε and on the conventional isozyme PKCβ1.
(§2) Rat basophilic leukemia 2H3 (RBL) cells were cultured in Dulbecco's Modified Eagle Medium (DMEM) (Invitrogen Life Technologies, Gibco) containing 20% fetal calf serum with 50 units/ml penicillin, […] and 4 mM glutamine (Gibco). Cells were maintained at 37° C. in an atmosphere of 10% CO2. Two hours prior to transfection, cells were plated onto sterile glass coverslips. […]
(§3) Fluorescence images were obtained using the 488 nm excitation line of a laser scanning confocal microscope (Pascal, Zeiss) and emission was collected through a 505-550 nm band pass filter. […]
(§4) Images were exported as 12 bit files and analyzed using Metamorph data analysis software (Universal Imaging). To monitor the translocation of PKCδ-GFP, a small region of interest was selected in the cytosol of each cell and fluorescence intensity values graphed against time following background subtraction and normalization. […]

PKCδ-GFP fusion protein = target: T2, PKCδ-GFP fusion protein (Homo sapiens, UniProt Q05655); test: PKC translocation assay, PKCδ; format: cell-based, Rat; details: RBL cells, 200 nM, confocal microscopy
T2 construct: The DNA encoding C-terminal GFP-tagged full-length PKCδ was electroporated into the cells; expressed in transfected cells; host or cells: Rat basophilic leukemia 2H3 (RBL) cells
Procedure: as §1, §2, §3, §4

[3] = target: T3, PKCε (PKC-GFP fusion protein) (Homo sapiens, UniProt Q02156); test: PKC translocation assay, PKCε; format: cell-based, Rat; details: RBL cells, 200 nM, confocal microscopy
T3 construct: expressed in transfected cells; host or cells: Rat basophilic leukemia 2H3 (RBL) cells
Procedure: as §1, §2, §3, §4

PKCδ-C1B = target: T4, PKCδ-C1B (Mus musculus, UniProt P28867); test: PKCδ-C1B assay; format: binding
T4 construct: made in house
Procedure: Phosphatidyl serine vesicles are prepared by the addition of phosphatidyl serine (10 mg/mL in chloroform, 0.4 mL) to a glass test tube followed by removal of the chloroform under a stream of nitrogen (5 min). […] The resulting solution is stored over ice. […] Stock solutions of compounds are diluted with absolute ethanol in glass in serial fashion. […] The tubes are incubated at 37° C. for 90 min. and then put on ice for 5 min. Each tube is then filtered separately through a pre-soaked filter disc. […] The filter is subsequently rinsed with cold 20 mM TRIS buffer (5 mL) dropwise. […] The filters are immediately counted in a scintillation counter (Beckman LS 6000SC). Counts per minute are averaged among three trials at each concentration.

P388 cell line = test: P388 murine lymphocytic leukemia cell assay; format: cell-based; details: Mus musculus, P388, 120 h, read-out: P388 Assay ED50
Procedure: Cells from a P388 cell line (CellGate, Inc., Sunnyvale, Calif.) are grown in RPMI 1640 cell medium containing fetal calf serum (10%), L-glutamine, penicillin, streptomycin and are split twice weekly. All compounds are first diluted with DMSO. Later serial dilutions are done with a phosphate buffer solution (HYQ DPBS modified phosphate buffered saline). All dilutions are done in glass vials and the final DMSO concentration is always below 0.5% by volume. Final two-fold dilutions are done in a 96 well plate using cell media so that each well contains 50 μL. All compounds are assayed in quadruplicate over 12 concentrations. Cell concentration is measured using a hemacytometer and the final cell concentration is adjusted to 1×10^4 cells/mL with cell medium. The resulting solution of cells (50 μL) is then added to each well and the plates are incubated for 5 days in a 37° C., 5% CO2, humidified incubator (Sanyo CO2 incubator). MTT solution (3-[4,5-dimethylthiazol-2-yl]-2,5-diphenyltetrazolium bromide, 10 μL) is then added to each well and the plates are re-incubated under identical conditions for 2 h. To each well is then added acidified isopropanol (150 μL of i-PrOH solution containing 0.05 N HCl) and mixed thoroughly. The plates are then scanned at 595 nm and the absorbances are read (Wallac Victor 1420 Multilabel Counter). The resulting data is then analyzed to determine an ED50 value using the Prism software package (GraphPad).

[4] = target: PKC purified from rat brain; test: Protein kinase C (isozyme mix) assay; format: binding; details: 37° C., 90 min, read-out: Kd of [H^3]-PDBu
Procedure: In one approach, anticancer activity of compounds of the invention can be assessed using the protein kinase C assay detailed in Example 5. In this assay, Ki values are determined for analogues based on competition with radiolabeled phorbol 12,13-dibutyrate for binding to a mixture of PKC isoenzymes. PKC enzymes are implicated in a variety of cellular responses which may be involved in the activity of the bryostatins.
The following procedure was used, based on a modification of a previous procedure described by Tanaka et al. (1986). Filters (Whatman GF-B, 21 mm diam.) are soaked for 1 h in a solution containing deionized water (97 mL), and 10% polyethyleneamine (3 mL). A filtering buffer solution containing TRIS (1M, pH 7.4, 10 mL) and water (490 mL) is prepared and cooled on ice. […] Non-specific binding is measured in 1-3 tubes by the substitution of phorbol myristate acetate (PMA) (1 mM, 5 μL) and EtOH (15 μL) for the analogue/EtOH combination. […] The filters are immediately counted in a scintillation counter (Beckman LS 6000SC). […] The data is then plotted using a least squares fit algorithm with the Macintosh version of Kaleidagraph© (Abelbeck Software) and an IC50 (defined as the concentration of analogue required to displace half of the specific PDBU binding to PKC) is calculated. […]

T1 sequence (P05771 whole entry, the tested form may be a part): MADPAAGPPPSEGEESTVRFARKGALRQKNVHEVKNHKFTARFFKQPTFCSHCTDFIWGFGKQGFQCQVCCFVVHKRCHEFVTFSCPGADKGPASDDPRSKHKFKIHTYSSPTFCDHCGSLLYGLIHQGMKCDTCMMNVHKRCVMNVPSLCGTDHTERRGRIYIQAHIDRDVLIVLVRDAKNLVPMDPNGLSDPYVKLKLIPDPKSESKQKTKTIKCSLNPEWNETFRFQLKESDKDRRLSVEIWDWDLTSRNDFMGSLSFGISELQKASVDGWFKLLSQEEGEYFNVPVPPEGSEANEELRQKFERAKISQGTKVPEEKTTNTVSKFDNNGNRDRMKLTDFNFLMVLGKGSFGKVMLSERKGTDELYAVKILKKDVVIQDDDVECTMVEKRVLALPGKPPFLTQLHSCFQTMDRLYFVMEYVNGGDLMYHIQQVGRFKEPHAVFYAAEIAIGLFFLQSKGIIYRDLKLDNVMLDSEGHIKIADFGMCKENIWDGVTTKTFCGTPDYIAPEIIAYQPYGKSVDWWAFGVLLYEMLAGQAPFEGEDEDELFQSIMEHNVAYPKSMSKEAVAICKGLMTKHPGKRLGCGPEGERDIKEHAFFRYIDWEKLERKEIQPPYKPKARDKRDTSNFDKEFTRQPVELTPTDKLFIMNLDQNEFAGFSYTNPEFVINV
T4 sequence (P28867 231-281 limits assumed): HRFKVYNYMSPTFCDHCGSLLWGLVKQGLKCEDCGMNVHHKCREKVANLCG
T2 sequence (Q05655 whole entry, the tested form may be a part): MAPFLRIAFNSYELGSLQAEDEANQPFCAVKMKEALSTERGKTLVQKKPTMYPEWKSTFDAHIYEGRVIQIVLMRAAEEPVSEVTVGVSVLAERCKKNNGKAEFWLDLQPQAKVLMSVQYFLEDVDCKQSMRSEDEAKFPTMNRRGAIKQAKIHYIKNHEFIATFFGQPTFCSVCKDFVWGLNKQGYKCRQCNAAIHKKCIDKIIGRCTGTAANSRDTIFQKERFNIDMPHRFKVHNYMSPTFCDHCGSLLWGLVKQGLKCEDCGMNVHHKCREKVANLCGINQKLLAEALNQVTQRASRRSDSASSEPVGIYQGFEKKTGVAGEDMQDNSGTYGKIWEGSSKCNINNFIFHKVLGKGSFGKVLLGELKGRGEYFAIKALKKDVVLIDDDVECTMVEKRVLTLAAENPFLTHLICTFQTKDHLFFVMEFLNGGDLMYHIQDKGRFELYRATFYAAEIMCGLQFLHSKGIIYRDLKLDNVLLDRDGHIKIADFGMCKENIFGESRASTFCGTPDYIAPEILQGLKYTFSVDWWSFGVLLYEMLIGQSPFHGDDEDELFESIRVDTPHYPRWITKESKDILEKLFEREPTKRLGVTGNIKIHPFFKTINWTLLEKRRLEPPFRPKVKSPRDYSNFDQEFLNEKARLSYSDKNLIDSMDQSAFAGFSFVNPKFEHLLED
T3 sequence (Q02156 whole entry, the tested form may be a part): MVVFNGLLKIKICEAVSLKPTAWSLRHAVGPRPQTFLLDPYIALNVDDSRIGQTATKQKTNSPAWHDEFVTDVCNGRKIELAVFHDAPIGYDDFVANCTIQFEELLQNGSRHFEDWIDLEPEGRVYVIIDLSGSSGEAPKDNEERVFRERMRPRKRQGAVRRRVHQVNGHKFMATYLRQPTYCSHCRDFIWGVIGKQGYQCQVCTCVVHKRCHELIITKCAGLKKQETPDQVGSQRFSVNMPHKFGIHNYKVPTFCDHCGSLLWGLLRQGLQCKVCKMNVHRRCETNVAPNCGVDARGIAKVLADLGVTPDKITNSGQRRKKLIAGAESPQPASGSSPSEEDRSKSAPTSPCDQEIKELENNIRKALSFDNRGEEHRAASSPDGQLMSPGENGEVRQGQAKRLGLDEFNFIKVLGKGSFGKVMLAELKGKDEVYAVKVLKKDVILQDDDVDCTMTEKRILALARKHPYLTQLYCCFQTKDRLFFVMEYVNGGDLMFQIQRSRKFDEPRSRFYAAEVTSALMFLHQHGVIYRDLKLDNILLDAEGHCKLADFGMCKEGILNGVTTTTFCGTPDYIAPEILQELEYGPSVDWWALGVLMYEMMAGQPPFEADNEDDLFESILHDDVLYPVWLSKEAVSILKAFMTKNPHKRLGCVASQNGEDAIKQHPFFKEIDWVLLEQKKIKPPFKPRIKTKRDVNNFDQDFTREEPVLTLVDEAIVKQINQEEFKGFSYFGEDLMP

Q: For `C=CCC1C[C@H]2CCOCC[C@@H](O)CC(=O)O[C@@H](CO)C[C@@H]3C/C(=C\C(=O)OC)[C@H](OC(=O)CCCCCCC)[C@@](O)(O3)C(C)(C)/C=C/[C@@H](O1)O2` (stereo partly shown) [Formula 20A], which Ki [1] is on record?
A: 2.6 nM

Q: How did the “ability to translocate PKCβI relative to bryostatin 1” value [2] turn out when `CCCCCCCC(=O)OC1C(=CC(=O)OC)CC2CC(CO)OC(=O)CC(O)CC3CCCC(CC4COC(C=CC(C)(C)C1(O)O2)O4)O3` (stereo not shown) [Formula 18B.1] was run?
A: significantly reduced ability to translocate

Q: What about the “translocation of PKCβI from the cytosol to cellular membranes” value ([2]; RBL cells, 200 nM, confocal microscopy) of the same compound?
A: reduced

Q: What about the “translocation of PKCδ from the cytosol to cellular membranes” value (PKCδ-GFP fusion protein) of the same compound?
A: rapid and complete

Q: And the Ki [1]?
A: 5.4 nM

Q: And the “translocation of PKCε from the cytosol to cellular membranes” value [3]?
A: rapid and complete

Q: For `CCCC(=O)O[C@@H]1[C@@H](C)[C@@]2(O)[C@@H](C=C(CO)C[C@]3(O)C(=O)C(C)=C[C@@H]23)[C@@H]2C(C)(C)[C@]12OC(=O)CCC` [Phorbol dibutyrate, phorbol 12,13-dibutyrate, reference compound], which Kd (PKCδ-C1B; Kd value) is on record?
A: 1.7 nM

Q: With `C=CCC1C[C@H]2C[C@H]3CCC[C@@H](C[C@@H](O)CC(=O)O[C@@H](CO)C[C@@H]4C/C(=C\C(=O)OC)[C@H](OC(=O)CCCCCCC)[C@@](O)(O4)C(C)(C)/C=C/[C@@H](O1)O2)O3` (stereo partly shown) [Formula 22A] as the compound, how does the Ki [1] read?
A: 0.67 nM

Q: With `CCCCCCC(=O)O[C@H]1/C(=C/C(=O)OC)C[C@H]2C[C@H]([C@@H](C)O)OC(=O)C[C@H](O)C[C@@H]3CCC[C@H](C[C@@H]4CCO[C@H](/C=C/C(C)(C)[C@]1(O)O2)O4)O3` [Formula 702.3] as the compound, how does the Ki (PKCδ-C1B) read?
A: 35 nM

Q: And the EC50 (P388 cell line)?
A: 38 nM

Q: `COC(=O)/C=C1\C[C@H]2C[C@H]([C@@H](C)O)OC(=O)C[C@H](O)C[C@@H]3CCC[C@H](C[C@@H]4CCO[C@H](/C=C/C(C)(C)[C@](O)(O2)[C@H]1OC(C)=O)O4)O3` [Formula 702.2] was tested. Which EC50 (P388 cell line; 5 days incubation, MTT) did it give?
A: 181 nM

Q: With `CCCC(=O)O[C@@H]1[C@@H](C)[C@@]2(O)[C@@H](C=C(CO)C[C@]3(O)C(=O)C(C)=C[C@@H]23)[C@@H]2C(C)(C)[C@]12OC(=O)CCC` [[3H]—PDBu, tritiated phorbol 12,13-dibutyrate, reference compound] as the compound, how does the Kd ([1]; read-out: PKC Binding constant (Kd of [3H]-PDBu)) read?
A: 1.17 nM

Q: And the Kd [4]?
A: 1.55 nM
